Results as given in patent publication US20130273138A1, “TRANSDERMAL FORMULATIONS OF GERANYLGERANYLACETONE” (COYOTE PHARMACEUTICALS, INC., priority 2012, published 2013).

Test: Dissolution of GGA patch (HPLC refractive index detector)
Assay type: physicochemical
Settings: 3.2 cm×3 cm patch, 10 mg GGA; 24 hour time point; acetonitrile as the media
Protocol: The assembly was then clipped to two pins to sink the membrane-patch assembly to the bottom of the vessel and remains at the fixed position.
Two chromatograms (one standard of 0.05 mg/mL and one sample taken at 24 hour time point) in FIGS. 1A and 1B illustrate the dissolution results. Nearly all GGA in the membrane was released according to this specific dissolution setting (i.e., acetonitrile as the media).

CC(=O)CC/C=C(\C)CC/C=C(\C)CC/C=C(\C)CCC=C(C)C [GGA, Geranylgeranylacetone]
GGA released from patch (dissolution): Nearly all
